From publication PMC4578755, “Development of novel cellular histone-binding and chromatin-displacement assays for bromodomain drug discovery” (Epigenetics & Chromatin, 2015)

Target: T1, TRIM24-PB/histone H3 co-localization in HeLa TRIM24-PB cells (Homo sapiens, UniProt O15164)
T1 construct: The FLAG-TRIM24-PB construct (residues 810–1050) was generated by PCR amplification; expressed in transfected cells
T1 sequence (O15164 810-1050): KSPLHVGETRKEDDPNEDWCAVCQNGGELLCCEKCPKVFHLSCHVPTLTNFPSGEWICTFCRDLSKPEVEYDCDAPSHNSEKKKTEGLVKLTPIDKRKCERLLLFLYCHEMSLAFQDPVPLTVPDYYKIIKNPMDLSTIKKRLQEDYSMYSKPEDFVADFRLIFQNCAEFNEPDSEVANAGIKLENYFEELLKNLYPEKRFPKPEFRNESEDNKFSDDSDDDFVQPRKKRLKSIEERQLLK
Assay: Proximity ligation assay (PLA) TRIM24/histone H3
Assay type: cell-based
Conditions: SAHA treatment; Alexa-conjugated secondary antibodies
Procedure: Hela cells expressing FLAG-TRIM24-PHD-Bromo-V5 (TRIM24-PB) (20 K/100 µL) were seeded into 96-well plates (Corning Costar #CLS3603) in DMEM media supplemented with 10 % FBS and grown overnight. After treatment with SAHA (5 µM, 2 h), plates were washed with PBS (150ul per well) and fixed with 4 % paraformaldehyde (10 min at RT). PLA was performed using Duolink® In situ Red Starter Kit Mouse/Goat (Sigma-Aldrich, DUO92103), according to manufacturer’s recommendation. Primary antibody pair was: Goat anti-V5 (1:200 dilution; Bethyl #A190-119A) and Mouse anti-histone H3 (1:4000 dilution; Active Motif, #39763). Following PLA, secondary antibody Alexa Fluor®594 Donkey Anti-Goat (Invitrogen #A-11056) and Alexa Fluor®488 Donkey Anti-Mouse (Invitrogen #A-21202) were used to measure the total levels of V5 and histone H3. Using the High-Content Screening System Operetta with 40× magnification, cell images from 25 fields in each well were taken in 4 channels (Alexa488, Alexa594, Alexa647 and Hoechst). […] For each gated cell, we calculated the mean signal intensity for histone H3 (Alexa488 in the nucleus minus Alexa488 in the cytoplasm); TRIM24 (Alexa594 in the nucleus minus the […] intensity in the cytoplasm); and the mean number for the PLA signal (number of spots in nucleus). […]

Mean nuclei levels of TRIM24: did not change
SMILES: O=C(CCCCCCC(=O)Nc1ccccc1)NO [SAHA, Suberoylanilide Hydroxamic Acid]
